{
  "source": "patent US9439854B2",
  "about": "“Liquid pharmaceutical formulations of palonosetron” (Helsinn Healthcare SA, priority 2003, dated 2016)",
  "key": {"[1]": {"test": "physical and chemical stability of palonosetron HCl admixed with dexamethasone", "type": "physicochemical", "details": "palonosetron HCl 5 or 25 μg/mL with dexamethasone 0.2, 0.4 or 0.33 mg/mL in 5% dextrose or 0.9% sodium chloride; 14 days at 4° C., 48 hours at 23° C.", "method": "The physical and chemical stability of palonosetron HCl 0.25 mg admixed with dexamethasone (as sodium phosphate) 10 mg or 20 mg in 5% dextrose injection or 0.9% sodium chloride injection in polyvinyl chloride (PVC) minibags, and also admixed with dexamethasone (as sodium phosphate) 3.3 mg in 5% dextrose injection or 0.9% sodium chloride injection in polypropylene syringes at 4° C. in the dark for 14 days and at 23° C. exposed to normal laboratory fluorescent light over 48 hours, was studied. Test samples of palonosetron HCl 5 μg/mL with dexamethasone (as sodium phosphate) 0.2 mg/mL and also 0.4 mg/mL were prepared in polyvinyl chloride (PVC) minibags of each infusion solution. Additionally, palonosetron HCl 25 μg/mL with dexamethasone (as sodium phosphate) 0.33 mg/mL in each infusion solution were prepared as 10 mL of test solution in 20-mL polypropylene syringes. […] Physical stability was assessed using visual observation in normal room light and using a high-intensity monodirectional light beam. In addition, turbidity and particle content were measured electronically. Chemical stability of the drug was evaluated by using a stability-indicating high performance liquid chromatographic (HPLC) analytical technique."}, "[2]": {"test": "formulation optimization study (concentration ranges, 24 lots)", "type": "physicochemical", "details": "0.05 mg/mL to 5.0 mg/mL; citrate buffer 0 to 80 mM; EDTA 0 to 0.10%", "method": "A formulation optimization study was performed using an experimental design software. Twenty-four lots of drug product were analyzed to investigate the appropriate concentration ranges for palonosetron hydrochloride (0.05 mg/mL to 5.0 mg/mL), citrate buffer (0 to 80 mM) and EDTA (0 to 0.10%)."}, "[3]": {"test": "effect of pH on stability of formulations containing palonosetron hydrochloride at 80° C.", "type": "physicochemical", "details": "pH 2.0, 5.0, 7.4 and 10.0 tested", "method": "A study was conducted to determine the effect of pH on formulations containing palonosetron hydrochloride, measuring the stability at 80° C. at pH 2.0, 5.0, 7.4, and 10.0."}, "[4]": {"test": "physical and chemical stability of palonosetron HCl in infusion solutions (without dexamethasone)", "type": "physicochemical", "details": "5 and 30 μg/mL in 4 infusion solutions, PVC bags; 14 days at 4° C. in the dark, 48 hours at 23° C. under fluorescent light", "method": "The physical and chemical stability of palonosetron HCl was studies in concentrations of 5 μg/mL and 30 μg/mL in 5% dextrose injection, 0.9% sodium chloride injection, 5% dextrose in 0.45% sodium chloride injection, and dextrose 5% in lactated Ringer's injection. The admixtures were evaluated over 14 days at 4° C. in the dark and for 48 hours at 23° C. under fluorescent light. Test samples of palonosetron HCl were prepared in polyvinyl chloride (PVC) bags of the infusion solutions at concentrations of 5 and 30 μg/mL. Evaluations for physical and chemical stability were performed on samples taken initially and after 1, 3, 5, 7, and 14 days of storage at 4° C. and after 1, 4, 24, and 48 hours at 23° C. Physical stability was assessed using visual observation in normal room light and using a high-intensity monodirectional light beam. In addition, turbidity and particle content were measured electronically. Chemical stability of the drug was evaluated by using a stability-indicating high performance liquid chromatographic (HPLC) analytical technique."}, "5-HT3 receptor": {"biological_target": "T1, 5-HT3 receptor (Homo sapiens, UniProt P46098)", "T1 sequence (P46098 24-478)": "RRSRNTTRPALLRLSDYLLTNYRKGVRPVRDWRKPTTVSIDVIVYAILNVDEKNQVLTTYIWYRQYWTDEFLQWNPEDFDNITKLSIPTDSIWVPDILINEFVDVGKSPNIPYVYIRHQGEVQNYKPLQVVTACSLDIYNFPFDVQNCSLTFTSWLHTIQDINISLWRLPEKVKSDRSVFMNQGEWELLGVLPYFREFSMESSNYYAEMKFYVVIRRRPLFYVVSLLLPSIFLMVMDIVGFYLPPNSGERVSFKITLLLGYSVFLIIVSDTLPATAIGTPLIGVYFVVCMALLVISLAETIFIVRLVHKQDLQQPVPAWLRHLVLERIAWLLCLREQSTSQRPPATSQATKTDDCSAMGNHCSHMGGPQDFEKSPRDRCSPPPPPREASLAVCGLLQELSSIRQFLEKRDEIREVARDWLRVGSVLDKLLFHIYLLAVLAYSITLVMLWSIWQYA", "details": "clinical investigations; cited from earlier work"}, "[5]": {"details": "clinical investigations; cited from earlier work"}},
  "data": [
    {"smiles": "C[C@@H]1C[C@H]2[C@@H]3CCC4=CC(=O)C=C[C@]4(C)[C@@]3(F)[C@@H](O)C[C@]2(C)[C@@]1(O)C(=O)CO", "note": "[dexamethasone]", "values": [
      {"measurement": "chemical stability (loss of drug, HPLC)", "setting": "[1]", "value": "little or no loss"}
    ]},
    {"smiles": "Cl.O=C1c2cccc3c2[C@H](CCC3)CN1[C@@H]1CN2CCC1CC2", "note": "[palonosetron hydrochloride]", "values": [
      {"measurement": "chemical stability as a function of palonosetron concentration", "setting": "[2]", "value": "greatest stability seen at the lowest palonosetron concentrations"},
      {"measurement": "pH of greatest stability", "setting": "[3]", "value": "most stable at pH 5.0"},
      {"measurement": "physical compatibility (visual, turbidity, particle content)", "setting": "[1]", "value": "physically compatible throughout the study"},
      {"measurement": "chemical stability (loss of drug, HPLC)", "setting": "[4]", "value": "little or no loss"},
      {"measurement": "physical stability (visual, turbidity, particle content)", "setting": "[4]", "value": "physically stable throughout the study"}
    ]},
    {"smiles": "O=C1c2cccc3c2[C@H](CCC3)CN1[C@@H]1CN2CCC1CC2", "note": "[palonosetron, (3aS)-2,3,3a,4,5,6-Hexahydro-2-[(S)-1-Azabicyclo[2.2.2]oct-3-yl]2,3,3a,4,5,6-hexahydro-1-oxo-1Hbenz[de]isoquinoline]", "values": [
      {"measurement": "potency relative to most existing 5-HT3 receptor antagonists", "setting": "5-HT3 receptor", "value": "an order of magnitude more potent than most existing 5-HT3 receptor antagonists"},
      {"measurement": "reduction of delayed-onset nausea induced by chemotherapeutic agents", "setting": "5-HT3 receptor", "value": "effective to reduce delayed-onset nausea"},
      {"measurement": "half-life", "setting": "[5]", "value": "about 40 hours"}
    ]}
  ]
}
